{"source": "patent US20060069132A1", "about": "“Azolecarboxamide herbicides” (priority 2004, published 2006)", "key": {"[1]": {"system": "rice", "assay": "Test B flooded paddy test", "assay_type": "in vivo, Oryza sativa", "conditions": "1000 g ai/ha, scale 0 to 100 (0 no effect, 100 complete control)", "summary_of_the_method": "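Scale 0–100: zero equals no visible effect, 100 complete control, judged by eye relative to controls. Timing: 13 to 15 days in greenhouse post-treatment. Growth stage at spraying: two leaves (paddy) or one to four leaves, 2–18 cm (postemergence).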"}, "[2]": {"system": "small flower umbrella sedge", "assay": "Test B flooded paddy test", "assay_type": "in vivo, Cyperus difformis", "conditions": "1000 g ai/ha, scale 0 to 100 (0 no effect, 100 complete control)", "summary_of_the_method": "(§1)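 Postemergence plants were sprayed with formulated test chemicals at 2 to 18 cm height (1- to 4-leaf stage); paddy species were grown to the 2-leaf stage. After 13 to 15 days in a greenhouse, injury was rated visually against untreated controls on a 0–100 scale (0 = no effect, 100 = complete control).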"}, "[3]": {"system": "cocklebur", "assay": "Test B pre-/postemergence herbicide test", "assay_type": "in vivo, Xanthium strumarium", "conditions": "for Cocklebur plant response rating: postemergence", "summary_of_the_method": "(§2)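 Seeds were planted and treated preemergence with compounds formulated in a non-phytotoxic solvent mixture containing surfactant, while plants at the 1- to 4-leaf stage (2 to 18 cm) received postemergence sprays. Flooded paddy plants were grown to the 2-leaf stage. After 13 to 15 days in a greenhouse, injury was visually rated 0–100 against untreated controls.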"}, "[4]": {"system": "Surinam grass", "assay": "Test B pre-/postemergence herbicide test", "assay_type": "in vivo, Urochloa decumbens", "conditions": "for Surinam Grass plant response rating: postemergence", "summary_of_the_method": "(§3)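 Formulation: non-phytotoxic solvent mix with surfactant. Timing: preemergence on seed and postemergence on 2–18 cm plants, applied concurrently. Readout after 13–15 d greenhouse: visual 0–100 control rating against controls.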"}, "[5]": {"system": "large crabgrass", "assay": "Test B pre-/postemergence herbicide test", "assay_type": "in vivo, Digitaria sanguinalis", "conditions": "for Crabgrass, Large plant response rating: postemergence", "summary_of_the_method": "as §3"}, "[6]": {"system": "ducksalad", "assay": "Test B flooded paddy test", "assay_type": "in vivo, Heteranthera limosa", "conditions": "1000 g ai/ha, scale 0 to 100 (0 no effect, 100 complete control)", "summary_of_the_method": "as §1"}, "[7]": {"system": "blackgrass", "assay": "Test B postemergence herbicide test", "assay_type": "in vivo, Alopecurus myosuroides", "conditions": "postemergence", "summary_of_the_method": "as §1"}, "[8]": {"system": "barnyardgrass", "assay": "Test B pre-/postemergence herbicide test", "assay_type": "in vivo, Echinochloa crus-galli", "conditions": "for Barnyardgrass plant response rating: postemergence", "summary_of_the_method": "as §2"}, "[9]": {"system": "barnyardgrass", "assay": "Test B flooded paddy test", "assay_type": "in vivo, Echinochloa crus-galli", "conditions": "1000 g ai/ha, scale 0 to 100 (0 no effect, 100 complete control)", "summary_of_the_method": "as §1"}, "[10]": {"system": "wheat", "assay": "Test B postemergence herbicide test", "assay_type": "in vivo, Triticum aestivum", "set-up": "key to Wheat plant response rating: 0 = no effect, 100 = complete control", "conditions": "postemergence", "summary_of_the_method": "as §1"}, "[11]": {"system": "giant foxtail", "assay": "Test B pre-/postemergence herbicide test", "assay_type": "in vivo, Setaria faberi", "conditions": "for Foxtail, Giant plant response rating: postemergence", "summary_of_the_method": "as §3"}, "[12]": {"system": "wild oat", "assay": "Test B postemergence herbicide test", "assay_type": "in vivo, Avena fatua", "conditions": "postemergence", "summary_of_the_method": "as §1"}, "[13]": {"system": "corn", "assay": "Test B pre-/postemergence herbicide test", "assay_type": "in vivo, Zea mays", "conditions": "for Corn plant response rating: postemergence", "summary_of_the_method": "as §3"}, "[14]": {"system": "pigweed", "assay": "Test B pre-/postemergence herbicide test", "assay_type": "in vivo, Amaranthus retroflexus", "conditions": "for Pigweed plant response rating: postemergence", "summary_of_the_method": "as §3"}, "[15]": {"system": "velvetleaf", "assay": "Test B pre-/postemergence herbicide test", "assay_type": "in vivo, Abutilon theophrasti", "conditions": "for Velvetleaf plant response rating: postemergence", "summary_of_the_method": "as §3"}, "[16]": {"conditions": "125 g ai/ha, 0 = no effect, 100 = complete control, preemergence"}, "[17]": {"conditions": "125 g ai/ha, visual rating, scale 0 (no effect) to 100 (complete control)"}, "[18]": {"conditions": "500 g ai/ha, visual rating, 0 = no effect, 100 = complete control, preemergence"}, "[19]": {"conditions": "500 g ai/ha, scale 0 to 100, 0 is no effect, 100 is complete control"}, "[20]": {"conditions": "125 g ai/ha, 0 is no effect, 100 is complete control, preemergence"}}}
{"smiles": "CCn1nc(C2(C)CC2)cc1C(=O)Nc1cccc(C(=O)N2CC=CC2)c1", "note": "[Compound 304]", "values": [{"measurement": "Rice plant response rating", "setting": "[1]", "result": 90}, {"measurement": "Sedge, Umbrella plant response rating", "setting": "[2]", "result": 90}, {"measurement": "Cocklebur plant response rating (0 to 100 scale)", "setting": "[3]; [16]", "result": 0}, {"measurement": "Cocklebur plant response rating", "setting": "[3]; [17]", "result": 0}, {"measurement": "Plant response rating, Cocklebur", "setting": "[3]; [18]", "result": 0}, {"measurement": "Cocklebur plant response rating", "setting": "[3]; [19]", "result": 100}, {"measurement": "Surinam Grass plant response rating (0 to 100 scale)", "setting": "[4]; [16]", "result": 10}, {"measurement": "Surinam Grass plant response rating", "setting": "[4]; [17]", "result": 0}, {"measurement": "Plant response rating, Surinam Grass", "setting": "[4]; [18]", "result": 70}, {"measurement": "Surinam Grass plant response rating", "setting": "[4]; [19]", "result": 10}, {"measurement": "Crabgrass, Large plant response rating (0 to 100 scale)", "setting": "[5]; [16]", "result": 10}, {"measurement": "Crabgrass, Large plant response rating", "setting": "[5]; [17]", "result": 10}, {"measurement": "Plant response rating, Crabgrass, Large", "setting": "[5]; [18]", "result": 100}, {"measurement": "Crabgrass, Large plant response rating", "setting": "[5]; [19]", "result": 10}, {"measurement": "Ducksalad plant response rating", "setting": "[6]", "result": 90}, {"measurement": "Blackgrass plant response rating", "setting": "[7]; [17]", "result": 10}, {"measurement": "Blackgrass plant response rating", "setting": "[7]; [19]", "result": 40}, {"measurement": "Barnyardgrass plant response rating (0 to 100 scale)", "setting": "[8]; [16]", "result": 10}, {"measurement": "Barnyardgrass plant response rating", "setting": "[8]; [17]", "result": 20}, {"measurement": "Plant response rating, Barnyardgrass", "setting": "[8]; [18]", "result": 70}, {"measurement": "Barnyardgrass plant response rating", "setting": "[8]; [19]", "result": 20}, {"measurement": "Barnyardgrass plant response rating", "setting": "[9]", "result": 80}, {"measurement": "Wheat plant response rating", "setting": "[10]; [17]", "result": 10}, {"measurement": "Wheat plant response rating", "setting": "[10]; [19]", "result": 20}, {"measurement": "Foxtail, Giant plant response rating (0 to 100 scale)", "setting": "[11]; [16]", "result": 10}, {"measurement": "Foxtail, Giant plant response rating", "setting": "[11]; [17]", "result": 30}, {"measurement": "Plant response rating, Foxtail, Giant", "setting": "[11]; [18]", "result": 90}, {"measurement": "Foxtail, Giant plant response rating", "setting": "[11]; [19]", "result": 30}, {"measurement": "Oat, Wild plant response rating", "setting": "[12]; [17]", "result": 30}, {"measurement": "Oat, Wild plant response rating", "setting": "[12]; [19]", "result": 40}, {"measurement": "Corn plant response rating (0 to 100 scale)", "setting": "[13]; [16]", "result": 0}, {"measurement": "Corn plant response rating", "setting": "[13]; [17]", "result": 40}, {"measurement": "Corn plant response rating", "setting": "[13]; [19]", "result": 80}, {"measurement": "Pigweed plant response rating (0 to 100 scale)", "setting": "[14]; [16]", "result": 100}, {"measurement": "Pigweed plant response rating", "setting": "[14]; [17]", "result": 90}, {"measurement": "Plant response rating, Pigweed", "setting": "[14]; [18]", "result": 100}, {"measurement": "Pigweed plant response rating", "setting": "[14]; [19]", "result": 90}, {"measurement": "Velvetleaf plant response rating", "setting": "[15]; [17]", "result": 10}, {"measurement": "Plant response rating, Velvetleaf", "setting": "[15]; [18]", "result": 100}, {"measurement": "Velvetleaf plant response rating", "setting": "[15]; [19]", "result": 60}]}
{"smiles": "CCn1nc(C(C)(C)C)cc1C(=O)Nc1cccc(OC(F)(F)C(F)F)c1", "note": "[Compound 333]", "values": [{"measurement": "Rice plant response rating", "setting": "[1]", "result": 20}, {"measurement": "Sedge, Umbrella plant response rating", "setting": "[2]", "result": 80}, {"measurement": "Plant response rating (0 to 100 scale), Cocklebur", "setting": "[3]; [20]", "result": 0}, {"measurement": "Cocklebur plant response rating", "setting": "[3]; [17]", "result": 20}, {"measurement": "Plant response rating, Cocklebur", "setting": "[3]; [18]", "result": 0}, {"measurement": "Cocklebur plant response rating", "setting": "[3]; [19]", "result": 80}, {"measurement": "Plant response rating (0 to 100 scale), Surinam Grass", "setting": "[4]; [20]", "result": 10}, {"measurement": "Surinam Grass plant response rating", "setting": "[4]; [17]", "result": 20}, {"measurement": "Plant response rating, Surinam Grass", "setting": "[4]; [18]", "result": 20}, {"measurement": "Surinam Grass plant response rating", "setting": "[4]; [19]", "result": 30}, {"measurement": "Plant response rating (0 to 100 scale), Crabgrass, Large", "setting": "[5]; [20]", "result": 40}, {"measurement": "Crabgrass, Large plant response rating", "setting": "[5]; [17]", "result": 40}, {"measurement": "Plant response rating, Crabgrass, Large", "setting": "[5]; [18]", "result": 70}, {"measurement": "Crabgrass, Large plant response rating", "setting": "[5]; [19]", "result": 100}, {"measurement": "Ducksalad plant response rating", "setting": "[6]", "result": 80}, {"measurement": "Blackgrass plant response rating", "setting": "[7]; [17]", "result": 30}, {"measurement": "Blackgrass plant response rating", "setting": "[7]; [19]", "result": 70}, {"measurement": "Plant response rating (0 to 100 scale), Barnyardgrass", "setting": "[8]; [20]", "result": 0}, {"measurement": "Barnyardgrass plant response rating", "setting": "[8]; [17]", "result": 10}, {"measurement": "Plant response rating, Barnyardgrass", "setting": "[8]; [18]", "result": 20}, {"measurement": "Barnyardgrass plant response rating", "setting": "[8]; [19]", "result": 40}, {"measurement": "Barnyardgrass plant response rating", "setting": "[9]", "result": 50}, {"measurement": "Wheat plant response rating", "setting": "[10]; [17]", "result": 20}, {"measurement": "Wheat plant response rating", "setting": "[10]; [19]", "result": 30}, {"measurement": "Plant response rating (0 to 100 scale), Foxtail, Giant", "setting": "[11]; [20]", "result": 10}, {"measurement": "Foxtail, Giant plant response rating", "setting": "[11]; [17]", "result": 30}, {"measurement": "Plant response rating, Foxtail, Giant", "setting": "[11]; [18]", "result": 20}, {"measurement": "Foxtail, Giant plant response rating", "setting": "[11]; [19]", "result": 40}, {"measurement": "Oat, Wild plant response rating", "setting": "[12]; [17]", "result": 40}, {"measurement": "Oat, Wild plant response rating", "setting": "[12]; [19]", "result": 60}, {"measurement": "Plant response rating (0 to 100 scale), Corn", "setting": "[13]; [20]", "result": 0}, {"measurement": "Corn plant response rating", "setting": "[13]; [17]", "result": 10}, {"measurement": "Plant response rating, Corn", "setting": "[13]; [18]", "result": 0}, {"measurement": "Corn plant response rating", "setting": "[13]; [19]", "result": 10}, {"measurement": "Plant response rating (0 to 100 scale), Pigweed", "setting": "[14]; [20]", "result": 90}, {"measurement": "Pigweed plant response rating", "setting": "[14]; [17]", "result": 90}, {"measurement": "Plant response rating, Pigweed", "setting": "[14]; [18]", "result": 100}, {"measurement": "Pigweed plant response rating", "setting": "[14]; [19]", "result": 100}, {"measurement": "Plant response rating (0 to 100 scale), Velvetleaf", "setting": "[15]; [20]", "result": 10}, {"measurement": "Velvetleaf plant response rating", "setting": "[15]; [17]", "result": 50}, {"measurement": "Velvetleaf plant response rating", "setting": "[15]; [19]", "result": 60}]}
